The values that follow come from a melting point compilation (Tetko et al.; mined from patent text by program, amines drawn as free bases though some values may be those of a salt).

Broadly, the melting point is the temperature, or range, at which the solid turns liquid. `CCOC(=O)N1CCc2nc3ccccc3c(Cl)c2CC1` displayed a melting point of 104 °C.

As to `Cc1ccsc1-c1nc2cc([N+](=O)[O-])ccc2o1`, the melting point lay within 174 to 176 °C.

Turning to `CC(C)C(=O)NCCO`, the melting point lay in the range of 54 to 57 °C.

`CNC(=O)c1cccc(F)c1Nc1nc(Nc2ccc3c(c2)N(CCOC)C(=O)CCC3)ncc1Br` returned a melting point of 211 to 224 °C.

Consider `COC(=O)c1ccc(OCCC[Si](C)(C)C)cc1O`, for which the melting point lay in the range of 32 to 33 °C.

`CCOc1cc(-c2cc(C(F)(F)F)n3ncc(C(=O)O)c3n2)ccc1C(F)(F)F` yielded a melting point of 264 °C.

Molecule `CS(=O)(=O)c1ccc(Oc2cc(OCc3ccccc3)c3[nH]c(-c4nnc(CO)s4)cc3c2)cc1` came in with a melting point of 159 to 160 °C.

As to `N#Cc1ncccc1-c1ccc2c(c1)C1(CCCCC1)C(=O)N2`, the melting point was in the range of 232 to 234 °C.

Molecule `ClCc1cccc2c(-c3ccc(Cl)cc3)nccc12` came in with a melting point of 101 to 102 °C.

Molecule `CCOc1ccc(CO)c(Oc2ccc(Cl)cc2Cl)n1` gave a melting point of 106 to 107 °C.

As to `[N-]=[N+]=NC1(O)CC(n2cc(I)c(=O)[nH]c2=O)OC1CO` (centres undefined), the melting point was in the range of 126 to 130 °C.

With `CC(=O)NC[C@H]1CN(c2ccc(N3CCC(F)(COS(C)(=O)=O)CC3)c(F)c2)C(=O)O1`, the melting point is 182 to 183 °C.

Molecule `CSc1nc(Cc2ccccc2N)n[nH]1` registered a melting point of 99 to 102 °C.

As for `COc1ccc(-c2ccc3c(C)c(OC)ccc3c2)cc1`, the melting point was in the range of 136 to 138 °C.

The molecule `CCn1c(=O)sc2cc(C(c3ccc([N+](=O)[O-])cc3)n3cncn3)ccc21` (centres undefined) registered a melting point of 79 to 83 °C.

Regarding `COC(=O)c1cnc2c(C)cc(C)cc2c1-c1ccccc1Cl`, the melting point is 117 to 118 °C.

Take `CCCCc1oc2ccccc2c1C(=O)c1ccc2c(Br)c(OCC(=O)O)ccc2c1`: the melting point was 163 to 165 °C.

`O=C1CC2(CN1)CC(O)c1cc(Cl)ccc12` (centres undefined) came in with a melting point of 172 to 174 °C.

As for `Cn1c(=O)c2c3oc4ccccc4oc3c3[nH]c4cc(O)ccc4c3c2c1=O`, the melting point amounted to 360 °C.

The molecule `Cc1ccccc1C1c2cc(NC(=O)CC(C)(C)C)c(C)c(C)c2OC1(C)C` (centres undefined) displayed a melting point of 161 to 162 °C.

Molecule `CCOC(=O)CC(=O)c1ccc(N)cc1` returned a melting point of 82 to 84 °C.

Regarding `CC(=O)SCC(CC1CN(Cc2ccccc2)CCO1)C(=O)Nc1cccc(C(=O)O)c1` (centres undefined), the melting point lay in the range of 103 to 105 °C.

`Cc1[nH]c(=S)n(Nc2cccc(Br)c2)c1-c1ccccc1` gave a melting point of 190 °C.

In the case of `Nc1cc(N2CCC(O)CC2)c(F)cc1[N+](=O)[O-]`, the melting point is 238 to 239 °C.

Molecule `CCOC(=O)CNC(=O)C=C(c1ccc(Cl)cc1)c1ccc(Cl)cc1` yielded a melting point of 123 to 124 °C.

With `CCOC(=O)c1cnn(-c2ccc(C(F)(F)F)cc2[N+](=O)[O-])c1N`, the melting point lay within 118 to 121 °C.

For the molecule `Fc1ccc(-c2ccn(C3CCNC3)c2-c2ccncc2)cc1` (centres undefined), the melting point was 145 to 147 °C.

Turning to `CC(C)(C)OC(=O)N1CCN(c2cccc([N+](=O)[O-])c2)C(=O)C1`, the melting point was in the range of 122 to 123 °C.

As for `CC1CCC(=NN)c2ncc(C(=O)NN)c(=O)n21` (centres undefined), the melting point was 219 to 220 °C.

In turn, `C[Si](C)(C)O[C@H]1C=C(S(=O)(=O)c2ccccc2)C=CCC1` came in with a melting point of 61.9 to 63.8 °C.

For `CCCCCCCNC(=O)N(C)c1ccc(C)c(-c2ccc(CCC(=O)O)cc2)c1`, the melting point worked out at 104 °C.

For `CC(C)(C)NC(=O)CN1C(=O)C(N)CC(c2ccc(Cl)c(Cl)c2)c2ccccc21` (centres undefined), the melting point was 140 to 150 °C.

`O=C(Nc1ccc(CP(=O)(O)O)cc1)C1=Cc2cc(C3CCCCC3)ccc2CC1` registered a melting point of 203 to 205 °C.

`COCC1=Nc2ccccc2C(=O)C1`: the melting point was 184 to 185 °C.

For `NC(=O)/C=C/c1cc2c(Oc3ccc(Cl)cc3)cncc2s1`, the melting point lay in the range of 176 to 178 °C.

The molecule `O[C@@H](CNCCOc1ccc2oc(-c3ccon3)cc2c1)COc1ccccc1F` registered a melting point of 109 to 110 °C.

As for `Cc1nc2c3c(c(C(=O)N4CCC4)cc2n1C)CCC(c1ccccc1)O3` (centres undefined), the melting point is 241 to 242 °C.

In turn, `Cc1cccc(C)c1NC(=O)c1ccc(C#N)cc1` displayed a melting point of 185 to 187 °C.

`CC(C)(C)[C@@H](CO)NC(=O)[C@@H](CC(=O)OCc1ccccc1)n1ccc(-c2ccc(-c3ccc(C(N)=O)cc3)cc2)c1` showed a melting point of 201 to 203 °C.

`CC(C)c1cc(S(C)(=O)=O)c(C(C)C)cc1C#N` came in with a melting point of 134 to 137 °C.

Turning to `Cc1cc(C(C)C(=O)O)n(C)c1C(=O)c1ccc(Cl)cc1` (centres undefined), the melting point is 153 to 154 °C.

For the molecule `CN1CC=C(c2c[nH]c3ccc(NS(C)(=O)=O)cc23)CC1`, the melting point lay within 210 to 214 °C.

On to `O=[N+]([O-])c1cc(Cl)c(Cl)cc1-n1cccc1`, for which the melting point was 69.5 to 70.5 °C.

Consider `CCOC(=O)Cn1c(C)cnc(NCC(F)(F)c2ccccc2)c1=O`, for which the melting point lay in the range of 106 to 110 °C.

`CCOP(=O)(OCC)C(c1cccnc1)C(O)c1ccccc1` (centres undefined): the melting point came out at 238 °C.

Regarding `O=C(NCCO)c1cccc(-c2ccc3cnn(-c4ccc(Cl)cc4Cl)c3c2)c1`, the melting point was in the range of 191 to 192 °C.

`CC1=C(c2ccc(OCC(=O)O)c(Cl)c2Cl)CC(C)CC1=O` (centres undefined) showed a melting point of 170 to 173 °C.

Consider `ON=Cc1c[nH]cc1-c1cccc(Cl)c1Cl`, for which the melting point lay in the range of 158 to 160 °C.

The molecule `CN1CCC(C(=O)CCc2ccccc2O)CC1` displayed a melting point of 99 to 101 °C.

`COCc1c(OCc2ccccc2)ccc2c1CCCC2=O` displayed a melting point of 55 to 56 °C.

With `COC(=O)CCNc1cc(Oc2ccc(Cl)cc2Cl)ccc1[N+](=O)[O-]`, the melting point was found to be 115 °C.

`CCOC(=O)C1=CC(C(=O)c2cc(Br)ccc2O)=CN2CCc3c([nH]c4ccccc34)C12C(=O)OCC` (centres undefined) came in with a melting point of 215 °C.

Regarding `O=c1[nH]ncc2[nH]c(-c3ccc(OC(F)F)c(OCC4CC4)c3)cc12`, the melting point lay in the range of 294 to 295 °C.

`COc1ccccc1-c1ccc2c(c1)S(=O)(=O)NC(C1CCCCC1)N2` (centres undefined) had a melting point of 219 to 222 °C.

Molecule `COc1cc2c(cc1OC)C(Oc1ccccc1)CN(NC(=O)c1cc(Cl)cc(Cl)c1)CC2` (centres undefined) returned a melting point of 184 to 185 °C.

The molecule `OCc1cc2cc(-c3ccccc3)ccc2o1` returned a melting point of 134 to 135 °C.

`OCCn1nccc1-c1ccc(Oc2ccc(F)cc2)cc1`: the melting point lay within 71 to 72 °C.

The molecule `Nc1nc(-c2cc(Cl)ccc2Cl)nc(N2CCCCC2)n1` yielded a melting point of 192 to 194 °C.

The molecule `ClCc1coc(-c2ccc(Cl)s2)n1` had a melting point of 90 to 91 °C.

With `CCOC(=O)NC(=S)Nc1ncc(C(F)(F)F)cc1F`, the melting point fell in the range of 99 to 100 °C.

Molecule `COC(=O)N(C(=O)c1ccc(C2=NOC(c3cc(Cl)cc(Cl)c3)(C(F)(F)F)C2)cc1C)c1cncnc1` (centres undefined) showed a melting point of 72 to 76 °C.

In turn, `CC(=O)OCc1csc(Nc2ccc(Br)cn2)n1` showed a melting point of 201 to 202 °C.

Consider `Cc1cc2c(cc1OCc1ccccc1)OC[C@@H](N1CCC(O)(c3ccc(F)cc3)CC1)[C@H]2O` (relative stereo), for which the melting point was in the range of 201 to 202 °C.

The molecule `C[C@H](C=C[C@H](C)[C@H](C)CO)[C@H]1CC[C@H]2C3=CCC4CC(=O)CC[C@]4(C)[C@H]3CC[C@]12C` (some centres undefined) registered a melting point of 192 to 193 °C.

With `N#Cc1cccc(CCc2nnc(-c3ccc4nccn4c3)o2)c1`, the melting point lay within 168 to 169 °C.

`Cc1noc(NS(=O)(=O)c2ccccc2N)c1C` returned a melting point of 116 to 118 °C.

Regarding `O=C1c2ccccc2C(=O)C1(c1ccccc1)N1CCC(c2noc3cc(F)ccc23)CC1`, the melting point was 149 to 150 °C.

In turn, `Cn1c(-c2ccccn2)cc2onc(-c3ccccc3)c2c1=O` registered a melting point of 160 to 162 °C.

Regarding `CC(C)c1ccccc1Sc1c(O)cc(-c2cccc(Cl)c2)oc1=O`, the melting point fell in the range of 177 to 178 °C.

Turning to `CCOC(=O)C1=C(COCCNc2nc(C(=O)NC)cs2)NC(C)=C(C(=O)OC)C1c1ccccc1Cl` (centres undefined), the melting point worked out at 120 °C.

`OC[C@@H]1C[C@@H](C2CCCCC2)CN1`: the melting point is 98 to 99 °C.

`COC(=O)CCSc1cc(C(C)(C)C)c(O)c(C(C)(C)C)c1` came in with a melting point of 63.5 to 65.5 °C.

As for `O=c1[nH]c2c(Cl)cccc2s1`, the melting point lay within 203 to 204 °C.

`Cc1nc(COc2cccc(Cl)c2C)no1`: the melting point was determined as 69 °C.

On to `CCOC(=O)c1cnn2c1c(SC)nc1c(C)nn(C)c12`, for which the melting point is 86 to 87 °C.

The molecule `CNC(=S)C1(c2cccc([N+](=O)[O-])c2)CCCCC1=O` (centres undefined) registered a melting point of 128 to 132 °C.

As for `N[C@@H](Cc1ccccc1)C(=O)N(CC1CC(Cl)=NO1)C(=O)OCc1ccccc1` (some centres undefined), the melting point was in the range of 141 to 148 °C.

In turn, `COc1ccc(C(CSc2ccccc2N)C(=O)O)cc1OC` (centres undefined) came in with a melting point of 162 °C.

The molecule `O=C(Cc1ccc(Cl)c([N+](=O)[O-])c1)N[C@H]1C[C@H](C(=O)O)Nc2cc(Cl)cc(Cl)c21` (relative stereo) gave a melting point of 233 to 235 °C.

As to `C[C@@H]1CN(CCCn2c3ccccc3c3ccccc32)C[C@H](C)N1`, the melting point lay within 107 to 109 °C.

On to `CS(=O)(=O)c1ccccc1S(=O)(=O)Nc1cccc2cc(C3=NCCS3)[nH]c12`, for which the melting point lay within 211 to 212 °C.

Molecule `COc1cc(-c2nc3ccccc3n2Cc2c(Cl)cccc2Cl)cc(OC)c1OC` displayed a melting point of 157 °C.

On to `CCOC(=O)C(=CC=C(SC)C(=O)c1ccc(N2CCCCC2)cc1)N(C)C`, for which the melting point was found to be 113 °C.

`Cc1c(NC(=O)c2ccc(-c3ccc(F)cc3)cc2)ccc2cc(C(C)N3CCCC3)cnc12` (centres undefined): the melting point lay in the range of 179 to 182 °C.

As for `CCCCCCCCCCOc1ccc(C(=O)Nc2ccc(C(=O)O)cc2)cc1C12CC3CC(CC(C3)C1)C2`, the melting point is 247 to 248 °C.

In turn, `CCC12CCC3C4=C(CC(OC)=CC4)C(C)CC3C1CCC2=O` (centres undefined) had a melting point of 118 to 125 °C.

The molecule `O=c1[nH]c2cc(Cl)cc(Cl)c2c(=O)n1CCc1ccccc1` had a melting point of 230 to 232 °C.

Molecule `CCOCc1nc2c(N)nc3cc(-c4ccc(F)nc4)cnc3c2n1CC(C)(C)F` gave a melting point of 198 to 199 °C.

As to `CCNc1nc2ccccc2n2cnnc12`, the melting point lay in the range of 254 to 256 °C.
